Experimental data taken from paper PMC9688530, “Development of Ic-ELISA and Colloidal Gold Lateral Flow Immunoassay for the Determination of Cypermethrin in Agricultural Samples” (Biosensors, 2022).

Experiments:
anti-CYP mAb = experiment: colloidal gold LFIA strip; type: binding, mouse; conditions: for CR of LFIA: CR = vLOD of CYP/vLOD of analogue × 100%; for visual limit of detection (vLOD): optimal buffer
Experimental: Colloidal gold particles were synthesized with trisodium citrate as a reducing agent according to our previous work. For the preparation of colloidal gold mAb, 6.65 μg/mL anti-CYP mAbs were added to the colloidal gold solution adjusted to pH 8.2 using 0.2 mol/L K2CO3 with shaking at room temperature for 1 h. BSA (1%) was used to block free colloidal gold particles. After 1 h, the mixture was centrifuged at 12,000 revolutions per minute (RPM) for 15 min to remove free anti-CYP mAbs. The centrifuged deposits were resuspended using one-tenth of the original volume of sodium borate solution (0.01 mol/L) containing 2% BSA and 3% sucrose and preserved at 4 °C.
As depicted in Figure 1A, the LFIA strip was assembled into four components. The center section of a PVC plate was affixed to an NC membrane. The sample pad and absorption pad were stuck on both ends of the PVC plate, and both overlapped with the NC membrane by 1 mm. A total of 2 mg/mL of hapten 5-BSA and 0.5 mg/mL of GAMA were sprayed onto the NC membrane as the test line and control line, respectively, with 5 mm intervals by an automatic dispenser. After drying at 37 °C for 12 h, the fabricated cards were cut into 4 mm wide LFIA strips.
One hundred microliters of the CYP standard solution and 4 μL of the colloidal gold mAb solution were added into a micropore and mixed. After 5 min, an LFIA strip was inserted into the mixture solution. During the mixed solution migration from the sample pad to the absorbent pad, colloidal gold mAb was captured by the T and C lines, resulting in the appearance of color bands within 10 min. When the T line disappeared or the color intensity of the T line was lower than that of the C line, the result was positive (Figure 1B,C). When the color intensity of the T line was not less than that of the C line, the result was negative (Figure 1D).
The sensitivity of the LFIA strip was evaluated by a series of CYP standard solutions (0.7, 0.6, 0.5, 0.4, 0.3, 0.2, 0.1, 0 μg/mL). For qualitative analysis, the sensitivity of the LFIA strip was appraised by the visual LOD (vLOD) and the cut-off value. The vLOD is the lowest concentration of CYP at which the lighter color of the T line is observed compared to the C line. The cut-off value is the minimum CYP concentration at which no color band appears on the T line.
The CRs of the LFIA were calculated with the following equation:CR (%) = (vLOD of CYP/vLOD of analogues) × 100%.

anti-CYP mAb 2G7H9 = experiment: ic-ELISA based on mAb 2G7H9; type: binding, mouse; conditions: CR = IC50 of CYP/IC50 of analogue × 100%
Experimental: The ic-ELISA procedure was executed according to previous studies. Each well of the ELISA plate was coated with 100 μL of coating antigen diluted with carbonate buffer (0.05 mol/L, pH 9.6) at 4 °C overnight. After washing three times with phosphate-buffered saline (PBS, 0.01 mol/L, pH 7.4) containing 1‰ Tween-20, the wells were blocked with 200 μL of 5% skim milk powder in PBS at 37 °C for two hours. After the same washing procedure, 50 μL of CYP standard solution and 50 μL of mAb were pipetted into each well and incubated at 37 °C for one hour. After washing five times, 100 μL per well of 0.5‰ horseradish peroxidase-labeled goat anti-mouse IgG antibody in PBS was added and incubated at 37 °C for one hour. After the wells were washed five times, 100 μL per well of fresh substrate solution (0.1 mg/mL 3,3′,5,5′-tetramethylbenzidine and 0.024‰ H2O2 in 0.1 M citrate acid buffer) was added to react at 37 °C for 15 min. Then, 50 μL per well of 0.2 mol/L H2SO4 was used to stop the reaction, and the absorbances were read at 450 nm with a microplate reader.
Under the optimal conditions, a standard curve was constructed using a series of concentrations of standard solutions (50, 25, 12.5, 6.25, 3.13, 1.56, 0.78, 0.39 and 0.20 ng/mL) to assess the sensitivity of ic-ELISA. The IC50 and linear range (IC10–IC90) were calculated by a logistic equation established with Origin Pro 8.0.
The CRs of the ic-ELISA were calculated with the following equation:CR (%) = (IC50 of CYP/IC50 of analogues) × 100%.

Structure (SMILES)	CR of LFIA (anti-CYP mAb) [%]	visual limit of detection (vLOD) (anti-CYP mAb) [µg/mL]	Cross-reactivity rate (%) of ic-ELISA (anti-CYP mAb 2G7H9) [%]
CC1(C)C(C=C(Cl)Cl)C1C(=O)OC(C#N)c1ccc(F)c(Oc2ccccc2)c1 (stereo not drawn) [cyfluthrin]	30	1	31.09
CC1(C)C(/C=C(\Cl)C(F)(F)F)C1C(=O)OC(C#N)c1cccc(Oc2ccccc2)c1 (stereo not drawn) [cyhalothrin]	3	10	16.15
